The source of these data is ChEMBL document CHEMBL1240319, “New approaches to molecular cancer therapeutics” (Nat Chem Biol, 2006).

This assay can be described thus: Inhibition of HSP90.

What is called IC50 is the concentration needed to halve the response being measured. Read a high IC50 as lower potency. For the compound `CCNC(=O)c1n[nH]c(-c2cc(Cl)c(O)cc2O)c1-c1ccc(OC)cc1`, the IC50 turned out to be 0.025 µM.

`CCc1cc(-c2[nH]nc(C)c2-c2ccc3c(c2)OCCO3)c(O)cc1O` came in with an IC50 of 9 µM.
